From US20040052837A1, “Lipid conjugated anti-cancer drugs and methods of use thereof” (priority 2002, published 2004)
Like-named read-outs stand apart in the source and are kept apart here.

Key:
[1] = previous study (26); cited from earlier work
T27A cells = assay: Inhibition of T27A cell proliferation by [3H]thymidine incorporation; type: cell-based, murine
Experimental: The murine non-T non-B leukemia cell line T27A (ATCC, Rockville, Md., USA) was cultured in RPMI 1640 medium (Gibco/BRI, Gaithersburg, Md.) supplemented with 25 mM HEPES buffer, 2 mM glutamine, 100 U penicillin/ml, 100 μg streptomycin/ ml and 2 or 10% bovine calf serum (Hyclone, Logan, Utah) in a humidified 5% CO2 atmosphere. Cell viability was determined by Trypan blue exclusion.
DHA (NuChek Prep, Elysan, Minn.) was introduced into RPMI 1640 medium supplemented with 1% (w/v) fatty acid-free bovine serum albumin (Sigma) as described by Spector and Hoak (33) with modifications we have reported (34).
Liposomes were prepared fresh for each use. The bulk of the lipids was 18:0, 18:1 PC (up to 90 mol %), with 10 mol % 18:0, 18:1 PE added to augment fusion between liposomes and the cell-surface membrane. The control contained no additional lipids; the experimental groups contained up to an additional 15 mol % 18:0, 22:6 PC or up to 0.43 mol % 18:0, MTX-PC or 22:6, MTX-PC. The solvent was evaporated under nitrogen and the lipids dried under vacuum for 2 h. The lipids were rehydrated in RPMI medium, and multilamellar vesicles were prepared by vortexing 1 ml of lipids at a concentration of 2 mg/ml. Liposomes (small unilamellar vesicles) were created by sonicating the multilamellar vesicles for 15 min on ice under nitrogen with a Heat Systems W380 disruptor (Farmingdale, N.Y.) set at 1 s cycle time, 60% duty and 3-7% output. Liposome suspensions were centrifuged at low speed (3700 r.p.m.; 2300 g) to remove particulate material and sterile filtered through a 0.2-μm filter. An aliquot of each liposome preparation was tested by thin-layer chromatography to assure that hydrolysis had not occurred.
All concentrations given are final concentrations in the wells. […] Control liposomes were made from 1 mM 18:0, 18:1 PC/ 18:0, 18:1 PE (9/1, mol:mol). After 6 h of incubation, 0.5 μCi/well of [^3H]thymidine (2 Ci/mmol; Amersham, Arlington Heights, Ill.) was added and the incubation continued for an additional 18 h. Cells were then harvested onto glass fiber filters (PHD Cell Harvester; Cambridge Technology, Watertown, Mass.) and the radioactivity present in DNA on the filters was measured by liquid scintillation counting.
The IC50 for each agent alone was determined by non-linear curve fitting with the software package SigmaPlot (SPSS, Chicago, Ill.).

human neoplastic cells = details: (1); cited from earlier work
[2] = tested on: several different cell types; details: variety of assays in vitro (11, 37-39); cited from earlier work
[3] = (35); cited from earlier work
[4] = lipid included in liposomes of 1 mM 18:0,18:1 PC/18:0,18:1 PE (9:1), 24 h, read-out: IC50, inhibition of proliferation

CC/C=C\C/C=C\C/C=C\C/C=C\C/C=C\C/C=C\CCC(=O)OC[C@H](COP(=O)([O-])OCC[N+](C)(C)C)OC(=O)CC/C=C\C/C=C\C/C=C\C/C=C\C/C=C\C/C=C\CC [22:6, 22:6 PC, 1,2-didocosahexaenoyl-sn-glycero-3-phosphocholine]
direct cytotoxicity [1]: comparable to 18:0, 22:6 PC

CC/C=C\C/C=C\C/C=C\C/C=C\C/C=C\C/C=C\CCC(=O)O [DHA, docosahexaenoic acid]
% of maximal proliferation (T27A cells; 220 μM DHA alone): 57%
predicted % inhibition at 25 µM (T27A cells; Mus musculus, [DHA] 25 μM): 4.9%
predicted % inhibition at 50 µM (T27A cells; Mus musculus, [DHA] 50 μM): 9.8%
predicted % inhibition at 100 µM (T27A cells; Mus musculus, [DHA] 100 μM): 19.7%
predicted % inhibition at 150 µM (T27A cells; Mus musculus, [DHA] 150 μM): 29.5%
predicted % inhibition at 200 µM (T27A cells; Mus musculus, [DHA] 200 μM): 39.3%
IC50 (T27A cells; Mus musculus, albumin-bound DHA not conjugated to phospholipids, 24 h, 2% serum, read-out: IC50, inhibition of [3H]thymidine incorporation): 211000 nM
IC50 with albumin delivery relative to IC50 for DHA delivered in ethanol (T27A cells; albumin versus ethanol delivery): about 5 times

CN(Cc1cnc2nc(N)nc(N)c2n1)c1ccc(C(=O)N[C@@H](CCC(=O)O)C(=O)O)cc1 [MTX, methotrexate]
level at which toxic (human neoplastic cells): 20 nM
range of inhibitory doses reported [2]: 15 to 240 nM
pKa of α-carboxyl group [3]: 3.35
% of maximal proliferation (T27A cells; 30 nM MTX alone): 52%
IC50 (T27A cells; Mus musculus, 24 h, read-out: IC50 (dose for 50% inhibition of proliferation)): 30.6 nM
Inhibition (Predicted; %) (T27A cells; [MTX] 2.7 nm): 4.3%
Inhibition (Predicted; %) (T27A cells; [MTX] 9.5 nm): 15.2%
Inhibition (Predicted; %) (T27A cells; [MTX] 16.5 nm): 26.3%
Inhibition (Predicted; %) (T27A cells; [MTX] 23.3 nm): 37.2%
Inhibition (Predicted; %) (T27A cells; [MTX] 26.7 nm): 42.6%

CCCCCCCCCCCCCCCCCC(=O)OC[C@H](COP(=O)([O-])OCC[N+](C)(C)C)OC(=O)CC[C@H](NC(=O)c1ccc(N(C)Cc2cnc3nc(N)nc(N)c3n2)cc1)C(=O)O [18:0, MTXγ-PC]
IC50 (T27A cells; [4]): 2110 nM

CC/C=C\C/C=C\C/C=C\C/C=C\C/C=C\C/C=C\CCC(=O)OC[C@H](COP(=O)([O-])OCC[N+](C)(C)C)OC(=O)CC[C@H](NC(=O)c1ccc(N(C)Cc2cnc3nc(N)nc(N)c3n2)cc1)C(=O)O [22:6, MTXγ-PC]
IC50 (T27A cells; [4]): 1190 nM
potency as inhibitor of cell proliferation relative to 18:0, MTXγ-PC (T27A cells; liposomes with up to 0.43 mol % (4.2 μM) MTXγ-PC, 24 h): more potent inhibitor of cell proliferation than 18:0, MTXγ-PC
inhibition relative to 18:0, MTXγ-PC (T27A cells; low concentrations, below 1.5 μM, in liposomes): significantly more inhibitory than 18:0, MTXγ-PC
